Measured values taken from ChEMBL document CHEMBL5131391, “One-pot three-component synthesis of novel pyrazolo[3,4-b]pyridines as potent antileukemic agents” (Eur J Med Chem, 2022).
Activity calls are given as the source filed them. The rule behind the calls is not given here.

What was measured:
[1] = test system: SR; test: Antiproliferative activity against human SR cells assessed as growth inhibition at 10 uM measured after 48 hrs by NCI protocol based SRB assay relative to control; assay type: functional; details: read-out: GI
[2] = test system: HL-60(TB); test: Antiproliferative activity against human HL-60(TB) cells assessed as growth inhibition measured after 48 hrs by NCI protocol based SRB assay; assay type: functional
[3] = test system: A549; test: Antiproliferative activity against human A549 cells assessed as growth inhibition measured after 48 hrs by NCI protocol based SRB assay; assay type: functional
[4] = test system: NCI-H460; test: Antiproliferative activity against human NCI-H460 cells assessed as growth inhibition measured after 48 hrs by NCI protocol based SRB assay; assay type: functional
[5] = test system: HCT-15; test: Antiproliferative activity against human HCT-15 cells assessed as growth inhibition measured after 48 hrs by NCI protocol based SRB assay; assay type: functional
[6] = test system: SW-620; test: Antiproliferative activity against human SW-620 cells assessed as growth inhibition measured after 48 hrs by NCI protocol based SRB assay; assay type: functional
[7] = test system: U-251; test: Antiproliferative activity against human U-251 cells assessed as growth inhibition measured after 48 hrs by NCI protocol based SRB assay; assay type: functional
[8] = test system: MDA-MB-435; test: Antiproliferative activity against human MDA-MB-435 cells assessed as growth inhibition measured after 48 hrs by NCI protocol based SRB assay; assay type: functional
[9] = test system: Malme-3M; test: Antiproliferative activity against human Malme-3M cells assessed as growth inhibition measured after 48 hrs by NCI protocol based SRB assay; assay type: functional
[10] = test system: SK-MEL-2; test: Antiproliferative activity against human SK-MEL-2 cells assessed as growth inhibition measured after 48 hrs by NCI protocol based SRB assay; assay type: functional
[11] = test system: SK-MEL-5; test: Antiproliferative activity against human SK-MEL-5 cells assessed as growth inhibition measured after 48 hrs by NCI protocol based SRB assay; assay type: functional
[12] = test system: UACC-62; test: Antiproliferative activity against human UACC-62 cells assessed as growth inhibition measured after 48 hrs by NCI protocol based SRB assay; assay type: functional
[13] = test system: IGROV-1; test: Antiproliferative activity against human IGROV-1 cells assessed as growth inhibition measured after 48 hrs by NCI protocol based SRB assay; assay type: functional
[14] = test system: OVCAR-8; test: Antiproliferative activity against human OVCAR-8 cells assessed as growth inhibition measured after 48 hrs by NCI protocol based SRB assay; assay type: functional
[15] = test system: MCF7; test: Antiproliferative activity against human MCF7 cells assessed as growth inhibition measured after 48 hrs by NCI protocol based SRB assay; assay type: functional
[16] = test system: BT-549; test: Antiproliferative activity against human BT-549 cells assessed as growth inhibition measured after 48 hrs by NCI protocol based SRB assay; assay type: functional
[17] = test system: MDA-MB-468; test: Antiproliferative activity against human MDA-MB-468 cells assessed as growth inhibition measured after 48 hrs by NCI protocol based SRB assay; assay type: functional
[18] = test system: RPMI-8226; test: Cytostatic activity in human RPMI-8226 cells assessed as tumor growth inhibition measured after 48 hrs by NCI protocol based SRB assay; assay type: functional
[19] = test system: CCRF-CEM; test: Cytostatic activity in human CCRF-CEM cells assessed as tumor growth inhibition measured after 48 hrs by NCI protocol based SRB assay; assay type: functional
[20] = test system: SR; test: Cytostatic activity in human SR cells assessed as tumor growth inhibition measured after 48 hrs by NCI protocol based SRB assay; assay type: functional
[21] = test system: HOP-62; test: Cytostatic activity in human HOP-62 cells assessed as tumor growth inhibition measured after 48 hrs by NCI protocol based SRB assay; assay type: functional
[22] = test system: HCC 2998; test: Cytostatic activity in human HCC 2998 cells assessed as tumor growth inhibition measured after 48 hrs by NCI protocol based SRB assay; assay type: functional
[23] = test system: SNB-19; test: Cytostatic activity in human SNB-19 cells assessed as tumor growth inhibition measured after 48 hrs by NCI protocol based SRB assay; assay type: functional
[24] = test system: MDA-MB-435; test: Cytostatic activity in human MDA-MB-435 cells assessed as tumor growth inhibition measured after 48 hrs by NCI protocol based SRB assay; assay type: functional
[25] = test system: SK-MEL-2; test: Cytostatic activity in human SK-MEL-2 cells assessed as tumor growth inhibition measured after 48 hrs by NCI protocol based SRB assay; assay type: functional
[26] = test system: OVCAR-4; test: Cytostatic activity in human OVCAR-4 cells assessed as tumor growth inhibition measured after 48 hrs by NCI protocol based SRB assay; assay type: functional
[27] = test system: OVCAR-5; test: Cytostatic activity in human OVCAR-5 cells assessed as tumor growth inhibition measured after 48 hrs by NCI protocol based SRB assay; assay type: functional
[28] = test system: SN12C; test: Cytostatic activity in human SN12C cells assessed as tumor growth inhibition measured after 48 hrs by NCI protocol based SRB assay; assay type: functional
[29] = test system: UO-31; test: Cytostatic activity in human UO-31 cells assessed as tumor growth inhibition measured after 48 hrs by NCI protocol based SRB assay; assay type: functional
[30] = test system: PC-3; test: Cytostatic activity in human PC-3 cells assessed as tumor growth inhibition measured after 48 hrs by NCI protocol based SRB assay; assay type: functional
[31] = test system: DU-145; test: Cytostatic activity in human DU-145 cells assessed as tumor growth inhibition measured after 48 hrs by NCI protocol based SRB assay; assay type: functional
[32] = test system: Hs-578T; test: Cytostatic activity in human Hs-578T cells assessed as tumor growth inhibition measured after 48 hrs by NCI protocol based SRB assay; assay type: functional
[33] = test system: MDA-MB-468; test: Cytostatic activity in human MDA-MB-468 cells assessed as tumor growth inhibition measured after 48 hrs by NCI protocol based SRB assay; assay type: functional
[34] = test system: RS4-11; test: Induction of cell cycle arrest in human RS4-11 cells assessed as accumulation of cells in G2/M phase measured after 48 hrs by PI staining based flow cytometry analysis; assay type: functional; details: dose 1.25-10 µM, DDE = dose-dependent effect
[35] = test system: RS4-11; test: Induction of cell cycle arrest in human RS4-11 cells assessed as accumulation of cells in G2/M phase at 1.25 to 10 uM measured after 72 hrs by PI staining based flow cytometry analysis; assay type: functional; details: dose 1.25-10 µM
[36] = test system: RS4-11; test: Induction of cell cycle arrest in human RS4-11 cells assessed as accumulation of cells in subG1 phase at 1.25 to 10 uM measured after 72 hrs by PI staining based flow cytometry analysis; assay type: functional; details: dose 1.25-10 µM
[37] = test system: RS4-11; test: Downregulation of HOXA9 protein expression in human RS4-11 cells at 5 to 20 uM measured after 24 hrs by Western blot analysis; assay type: functional, cell-based; details: dose 5-20 µM
[38] = read-out: LC50 (the source's name)

N#Cc1c(-c2ccco2)nc2c(c(-c3ccccc3)nn2-c2ccccc2)c1-c1ccc(O)cc1
inhibition of growth at 10 µM [1]: 81%

N#Cc1c(-c2ccccc2)nc2c(c(-c3ccccc3)nn2-c2ccccc2)c1-c1ccc(O)cc1
GI50 [2]: 3.52 µM
CC50 [2, 38]: > 100 µM
GI50 [3]: 2.57 µM
CC50 [3, 38]: 84.2 µM
GI50 [4]: 1.73 µM
CC50 [4, 38]: 6.13 µM
GI50 [5]: 1.62 µM
CC50 [5, 38]: 8.9 µM
GI50 [6]: 1.86 µM
CC50 [6, 38]: 6.72 µM
GI50 [7]: 1.63 µM
CC50 [7, 38]: 9.71 µM
GI50 [8]: 1.86 µM
CC50 [8, 38]: 7.39 µM
GI50 [9]: 1.62 µM
CC50 [9, 38]: 9.06 µM
GI50 [10]: 2.39 µM
CC50 [10, 38]: 41.7 µM
GI50 [11]: 1.75 µM
CC50 [11, 38]: 5.79 µM
GI50 [12]: 1.7 µM
CC50 [12, 38]: 5.93 µM
GI50 [13]: 1.8 µM
CC50 [13, 38]: 7.28 µM
GI50 [14]: 3.14 µM
CC50 [14, 38]: > 100 µM
GI50 [15]: 1.86 µM
CC50 [15, 38]: 90 µM
GI50 [16]: 2 µM
CC50 [16, 38]: 9.92 µM
GI50 [17]: 2.41 µM
CC50 [17, 38]: 18.5 µM
TGI [18]: 17.9 µM
TGI [19]: 13.4 µM
TGI [20]: > 100 µM
TGI [21]: 4.49 µM
TGI [22]: 3.47 µM
TGI [23]: 3.8 µM
TGI [24]: 3.71 µM
TGI [25]: 5.65 µM
TGI [26]: 4.66 µM
TGI [27]: 3.41 µM
TGI [28]: 3.04 µM
TGI [29]: 4.17 µM
TGI [30]: 3.78 µM
TGI [31]: 8.53 µM
TGI [32]: 4.46 µM
TGI [33]: 5.57 µM

Cc1ccc(-c2nc3c(c(-c4ccccc4)nn3-c3ccccc3)c(-c3ccc(O)cc3)c2C#N)cc1
Activity [34]: Dde
Activity [35]: Active
Activity [36]: Active
Activity [37]: Active
